Where “and” joins values, the source holds several entries; their conditions need not be identical. Equal values may be shown once. After the bases stand the sugars from the 5' end (letter, count) and the backbone: PS all phosphorothioate, else s phosphorothioate and o phosphodiester by linkage. Methylation of C is not given here. k = constrained ethyl (cEt); d = 2'-deoxy (DNA)
Biological target: MALAT1
Details: ASO, A431, 0.005 µM

GCAGATAATGTTCTCA (sugars k3 d10 k3, PS)
target mRNA inhibition: 73% and 95%

ACGAAAGTCCTTCACA (sugars k3 d10 k3, PS)
target mRNA inhibition: 11%

TTATGGATCATGCCCA (sugars k3 d10 k3, PS)
target mRNA inhibition: 28%

GGAACAAGTCCTACAA (sugars k3 d10 k3, PS)
target mRNA inhibition: 23%

GAGAACTGCTCTAGTT (sugars k3 d10 k3, PS)
target mRNA inhibition: 34%

TACACTCCTTCTCTAA (sugars k3 d10 k3, PS)
target mRNA inhibition: -18%

CTATAGTCTGAAGAAT (sugars k3 d10 k3, PS)
target mRNA inhibition: 22%

CGCTTGAGATTTGGGC (sugars k3 d10 k3, PS)
target mRNA inhibition: 33%

GAGAAACCTACAACAC (sugars k3 d10 k3, PS)
target mRNA inhibition: 11%

TGTTACACCTTGAGTC (sugars k3 d10 k3, PS)
target mRNA inhibition: 37%

GTCCAATGCAAAAACA (sugars k3 d10 k3, PS)
target mRNA inhibition: -5%

TTATGCTTATTCCCCA (sugars k3 d10 k3, PS)
target mRNA inhibition: 75% and 85%

TTACATGTTCCCACCC (sugars k3 d10 k3, PS)
target mRNA inhibition: 19%

AGCTTCAATCACAAAT (sugars k3 d10 k3, PS)
target mRNA inhibition: 23%

TCCCCAATCAAGATTT (sugars k3 d10 k3, PS)
target mRNA inhibition: 18%

CAACCGTAACAGGCCA (sugars k3 d10 k3, PS)
target mRNA inhibition: 23%

AGATGGACATTGCCTC (sugars k3 d10 k3, PS)
target mRNA inhibition: 48%

CGAATTCAGGGTGAGG (sugars k3 d10 k3, PS)
target mRNA inhibition: 68% and 87%

GCCTTAAAGTTACATT (sugars k3 d10 k3, PS)
target mRNA inhibition: 10%

TCACCAAATCGCACTG (sugars k3 d10 k3, PS)
target mRNA inhibition: 20%

CACGCCAACACAGTTT (sugars k3 d10 k3, PS)
target mRNA inhibition: 36%

CGGAGAACAACTCGCA (sugars k3 d10 k3, PS)
target mRNA inhibition: -4%

GGGTTAAGCACTTTTA (sugars k3 d10 k3, PS)
target mRNA inhibition: 57%

GTACCTGAAAAATCTT (sugars k3 d10 k3, PS)
target mRNA inhibition: 3%

CTCCCAATTAATCTTT (sugars k3 d10 k3, PS)
target mRNA inhibition: 27%

AACCTATTGACTATAT (sugars k3 d10 k3, PS)
target mRNA inhibition: 19%

CCCAACACTGAACTAC (sugars k3 d10 k3, PS)
target mRNA inhibition: 19%

TTGTGGTTATAGCTTG (sugars k3 d10 k3, PS)
target mRNA inhibition: 68% and 93%

GGACTTGGCAGTCTGC (sugars k3 d10 k3, PS)
target mRNA inhibition: 27%

GAACTAGCACCTGCAG (sugars k3 d10 k3, PS)
target mRNA inhibition: 4%

CGATTATGGATCATGC (sugars k3 d10 k3, PS)
target mRNA inhibition: 44% and 57%

GTTAAACTTATCTGTT (sugars k3 d10 k3, PS)
target mRNA inhibition: 41%

TATTAAGAGCTGCTAT (sugars k3 d10 k3, PS)
target mRNA inhibition: 25%

TAGATTCCGTAACTTT (sugars k3 d10 k3, PS)
target mRNA inhibition: 58%

CCACAACAATTTAGAG (sugars k3 d10 k3, PS)
target mRNA inhibition: -27%

CCGCCTTTGTGAGGGA (sugars k3 d10 k3, PS)
target mRNA inhibition: 14%

CTGGTTATGACTCAGA (sugars k3 d10 k3, PS)
target mRNA inhibition: 1%

GGATGTATATAGTTCA (sugars k3 d10 k3, PS)
target mRNA inhibition: 30%

TCTTAATCAGTTACAA (sugars k3 d10 k3, PS)
target mRNA inhibition: 9%

TGCAAGTTAAACTTAT (sugars k3 d10 k3, PS)
target mRNA inhibition: 25%

CCCAGCATTACAGTTC (sugars k3 d10 k3, PS)
target mRNA inhibition: 10%

ACATTAAGTTGGTAAT (sugars k3 d10 k3, PS)
target mRNA inhibition: 4%

CGACCTCACGGATTTT (sugars k3 d10 k3, PS)
target mRNA inhibition: 16%

TAAGCAATATCTTAGT (sugars k3 d10 k3, PS)
target mRNA inhibition: 16%

CAGTCTACAAGTTACA (sugars k3 d10 k3, PS)
target mRNA inhibition: 27%

AGAGGGAGTTGAGGCA (sugars k3 d10 k3, PS)
target mRNA inhibition: 40%

TTAAAGAGTGTTCGCA (sugars k3 d10 k3, PS)
target mRNA inhibition: 59% and 39%

AGATCGCCTTCAAATT (sugars k3 d10 k3, PS)
target mRNA inhibition: 41%

CATCAAGGCACTGATC (sugars k3 d10 k3, PS)
target mRNA inhibition: 13%

CCAAATCGCACTGGCT (sugars k3 d10 k3, PS)
target mRNA inhibition: 16%

ACATTGCCTACCACTC (sugars k3 d10 k3, PS)
target mRNA inhibition: 16%

CCTACCACTCCCAATT (sugars k3 d10 k3, PS)
target mRNA inhibition: 21%

TCTAAGATTGTAAGCA (sugars k3 d10 k3, PS)
target mRNA inhibition: 53%

GCTTGACAAGCAATTA (sugars k3 d10 k3, PS)
target mRNA inhibition: 35%

TGCCACAGGAAGGCTC (sugars k3 d10 k3, PS)
target mRNA inhibition: -10%

CAGCTAAGATAGCAGC (sugars k3 d10 k3, PS)
target mRNA inhibition: 8%

ATTAAAGAGTGTTCGC (sugars k3 d10 k3, PS)
target mRNA inhibition: 69% and 44%

GTAACTTTAAATTGGT (sugars k3 d10 k3, PS)
target mRNA inhibition: 55% and 63%

TAAGATGCTAGCTTGG (sugars k3 d10 k3, PS)
target mRNA inhibition: 25%

TCCAAGAACTAGCACC (sugars k3 d10 k3, PS)
target mRNA inhibition: -5%

TCTCATACACTCACTA (sugars k3 d10 k3, PS)
target mRNA inhibition: 11%

CGCCTCTTAAAGCACT (sugars k3 d10 k3, PS)
target mRNA inhibition: -12%

CTTTTTAAAAGATCGC (sugars k3 d10 k3, PS)
target mRNA inhibition: 31%

AGGTATAGTTTACCAC (sugars k3 d10 k3, PS)
target mRNA inhibition: -7%

CAGACCTTCTGAACCG (sugars k3 d10 k3, PS)
target mRNA inhibition: 10%

AAAAGTAGTTCTTCGG (sugars k3 d10 k3, PS)
target mRNA inhibition: 18%

ATCACCGGAATTCGAT (sugars k3 d10 k3, PS)
target mRNA inhibition: 17%

GATTCTAACAGCACAT (sugars k3 d10 k3, PS)
target mRNA inhibition: 31%

CTAGGATCCTCTACGC (sugars k3 d10 k3, PS)
target mRNA inhibition: 11%

GAAATCTATTCAATAC (sugars k3 d10 k3, PS)
target mRNA inhibition: 24%

CCAACTGCTTGCAGTC (sugars k3 d10 k3, PS)
target mRNA inhibition: 25%

TTGAACCCCGTCCTGG (sugars k3 d10 k3, PS)
target mRNA inhibition: 12%

CAGGCAAATTAATGGC (sugars k3 d10 k3, PS)
target mRNA inhibition: 23%

TCTCAATTTGGCTATC (sugars k3 d10 k3, PS)
target mRNA inhibition: 29%

AAACATTGCCTACCAC (sugars k3 d10 k3, PS)
target mRNA inhibition: -9%

TTCTGAACCGGAGCAG (sugars k3 d10 k3, PS)
target mRNA inhibition: 23%

CTACTTAGCTGTGGTT (sugars k3 d10 k3, PS)
target mRNA inhibition: 33%

GACAGATTAGTAGTCA (sugars k3 d10 k3, PS)
target mRNA inhibition: -12%

CTGGAATGGCCAGCCT (sugars k3 d10 k3, PS)
target mRNA inhibition: 15%

TCGCAGACAAAGTTTC (sugars k3 d10 k3, PS)
target mRNA inhibition: 31%

CACCGCTTGAGATTTG (sugars k3 d10 k3, PS)
target mRNA inhibition: 47% and 30% and 26%

GAAAAGTGGTTGCCCG (sugars k3 d10 k3, PS)
target mRNA inhibition: 32%

AAAACTTATCTGCGGT (sugars k3 d10 k3, PS)
target mRNA inhibition: 54% and 41%

GCTCGATGGAAAAATT (sugars k3 d10 k3, PS)
target mRNA inhibition: 10%

CTTATCAATTCACCAA (sugars k3 d10 k3, PS)
target mRNA inhibition: 47%

TTTGGCATATGCAGAT (sugars k3 d10 k3, PS)
target mRNA inhibition: 24%

CTCCTGAGATGACTGA (sugars k3 d10 k3, PS)
target mRNA inhibition: 39%

CCCCCCCGCCTCAGTT (sugars k3 d10 k3, PS)
target mRNA inhibition: 15%

TAACAGCACATCATGC (sugars k3 d10 k3, PS)
target mRNA inhibition: 21%

CTGGCATGAGTTTATC (sugars k3 d10 k3, PS)
target mRNA inhibition: 27%

CAAAACCCCCGGAACT (sugars k3 d10 k3, PS)
target mRNA inhibition: 0%

TGGCGGACTTTCTCCC (sugars k3 d10 k3, PS)
target mRNA inhibition: 9%

AAGCATTCCTTCGGAT (sugars k3 d10 k3, PS)
target mRNA inhibition: -8%

CTATCTGAAACTCTTG (sugars k3 d10 k3, PS)
target mRNA inhibition: 57% and 34%

ACCTTCATCACCAAAT (sugars k3 d10 k3, PS)
target mRNA inhibition: 22%

ATACTCTTCCAAGGAT (sugars k3 d10 k3, PS)
target mRNA inhibition: 35%

GTGGCCTTGGCACACT (sugars k3 d10 k3, PS)
target mRNA inhibition: -10%

CAGTGCTATTTTATCC (sugars k3 d10 k3, PS)
target mRNA inhibition: 78% and 70%

TGAGTATGCTGATAAA (sugars k3 d10 k3, PS)
target mRNA inhibition: 41%

AAGTAGACCAACTAAG (sugars k3 d10 k3, PS)
target mRNA inhibition: -22%

ACTAAACAATTACCTA (sugars k3 d10 k3, PS)
target mRNA inhibition: 9%

CATCAAACACTGGTTC (sugars k3 d10 k3, PS)
target mRNA inhibition: 14%

TTACACCTTGAGTCAT (sugars k3 d10 k3, PS)
target mRNA inhibition: 21%

TACAAACTGCTTACAG (sugars k3 d10 k3, PS)
target mRNA inhibition: 39%

ATACTTGTCTTAGCTT (sugars k3 d10 k3, PS)
target mRNA inhibition: 60% and 75% and 50%

CAAGTAAGCCCCACCC (sugars k3 d10 k3, PS)
target mRNA inhibition: 26%

ATTAATGCACTGGTAC (sugars k3 d10 k3, PS)
target mRNA inhibition: 16%

AAGGCTCCATGGTTGT (sugars k3 d10 k3, PS)
target mRNA inhibition: 32%

CACTCATATGCAATTC (sugars k3 d10 k3, PS)
target mRNA inhibition: 37%

CACTCTAAGATTGTAA (sugars k3 d10 k3, PS)
target mRNA inhibition: 33%

CATGCCAGTTACTCCA (sugars k3 d10 k3, PS)
target mRNA inhibition: 33%

AAGTGCTCACAAGGCA (sugars k3 d10 k3, PS)
target mRNA inhibition: -16%

CTCATTTATTTCGGCT (sugars k3 d10 k3, PS)
target mRNA inhibition: 78% and 93%

AACTTGGAAGTTGATA (sugars k3 d10 k3, PS)
target mRNA inhibition: 19%
